{"source": "patent US20050175644A1", "about": "“Preparation for oxidation-sensitive compounds and method for making same” (priority 2002, published 2005)", "key": {"[1]": {"experiment": "stability of BHT in the preparation on storage, liquid chromatography", "format": "physicochemical", "method": "Finally, the stability of BHT in a preparation according to the invention was tested: • a container with 40 kg of preparation, covered with a simple lid without any special packaging such as the addition of an inert gas (e.g. nitrogen), was placed in storage for three yeas."}, "lipid-coated viruses": {"test_system": "lipid-coated viruses", "conditions": "against lipid-coated viruses; cited from earlier work"}, "[2]": {"test_system": "transformed human keratinocytes (cell line TR 146)", "experiment": "acute ocular tolerance on reconstituted corneas ([…] model), MTT cell viability test", "format": "cell-based", "design": "key to Colour of the two cultures: deep blue/purple colour when they are viable; white/yellow in colour if cell death occurs", "method": "To start with, the product was evaluated in terms of its capacity to trigger cytopathic effects on corneas reconstituted by means of in vitro transformed keratinocytes cultures.\nWhen they are cultured at the air-liquid interface in a specific medium, transformed human keratinocytes (cell line TR 146) form epithelial tissue without a corneal layer, similar to the human eye.\nA sample of the product to be studied (30 μl) was deposited on each of the six equivalent reconstituted corneal cultures and spread out using a thin brush.\nTwo cultures were then incubated at 37° C., 5% CO2 for 10 minutes, 1 hour, 3 hours and 24 hours.\nNegative controls substances (buffered phosphate saline solution A) and positive controls substances (0.4% SDS for “sodium dodecyl sulfate” in solution A) were prepared under sterile conditions and deposited simultaneously on the other two cultures. These cultures were incubated for one hand 24 hours. […]\nCell viability was measured qualitatively after staining. […]\nAfter incubation for 30 minutes at room temperature, each culture's colour is observed and recorded: • negative control cultures should be a deep blue/purple colour, evidence of the viability of cells in the basal layer after 24 hours in contact, • positive control cultures should be white, evidence of cell death from the first hour of contact."}}, "data": [{"molecule": "Cc1cc(C(C)(C)C)c(O)c(C(C)(C)C)c1", "note": "[BHT, 3,5-di-tert-butyl-4-hydroxytoluene]", "values": [{"measurement": "BHT concentrations by liquid chromatography", "setting": "[1]; 40 kg of preparation in a container with simple lid, no inert gas, stored three years", "result": "remained the same"}, {"measurement": "stability of BHT in a preparation according to the invention", "setting": "[1]; storage for three years", "result": "excellent"}, {"measurement": "antiviral properties", "setting": "lipid-coated viruses", "result": "antiviral properties"}]}, {"molecule": "CCCCCCCCCCCCOS(=O)(=O)[O-].[Na+]", "note": "[Positive control, sodium dodecyl sulfate]", "values": [{"measurement": "Colour of the two cultures", "setting": "[2]; 1 hour contact, MTT", "result": "white"}, {"measurement": "Toxicity", "setting": "[2]; interpretation of the colours at 10 min, 1, 3 and 24 hours", "result": "VI (very irritant (VI): white at 10 minutes, 1 hour, 3 hours and 24 hours)"}]}, {"molecule": "CC(C)(C)c1cc(C(=O)OCCOCCOCCOCCOCCOCCOCCOCCO)cc(C(C)(C)C)c1O", "note": "[AVF1, octaoxyethyleneglycol 3,5-di-tert-butyl-4-hydroxybenzoate]", "values": [{"measurement": "antiviral properties", "setting": "lipid-coated viruses", "result": "antiviral properties"}]}, {"molecule": "CC(C)(C)c1cc(C(=O)O)cc(C(C)(C)C)c1O", "note": "[BG4, 3,5-di-tert-butyl-4-hydroxybenzoic acid]", "values": [{"measurement": "antiviral properties", "setting": "lipid-coated viruses", "result": "antiviral properties"}]}]}
